The results in this text go back to patent US20100028879A1, “Modulators of HSD17b7 for treating acne or hyperseborrhea” (GALDERMA RESEARCH & DEVELOPMENT, priority 2006, published 2010).

Where two headings read alike, the source gives them in different places.

In the assay the test system is HSD17B7 gene. The following applies: gonadectomized mice, short-term treatment.

Protocol: The points Veh-24h-a and Veh-24h-b show the level of expression of HSD17B7 of gonadectomized mice untreated with DHT.
The expression of the genes was analyzed on an Affymetrix station (microfluidic model; hybridization oven; scanner; computer) following the protocols provided by the company. Briefly, the total RNA isolated from the tissues was transcribed to cDNA. From the double-stranded cDNA, a cRNA labeled with biotin was synthesized using T7 polymerase and a precursor NTP conjugated to biotin. The cRNAs were then fragmented to small sized fragments. […] The Affymetrix chip is hybridized with the biotinylated cRNA, rinsed and then fluorescence labeled using a fluorophore conjugated to streptavidin. After washings, the chip is scanned and the results are calculated using the MAS5 software provided by Affymetrix. An expression value is obtained for each gene as well as the indication of the significance of the value obtained.
B. Male mice were gonadectomized and were then treated with the vehicle or DHT. The preputial glands were removed for a period ranging up to 4 days (androgenic treatment alone—observation of a short-term kinetics). The RNA was isolated and the expression of the genes was analyzed by the Affymetrix technique using two different probe sets: 1417871_at (FIGS. 2A and 2C) and 1448865_at (FIGS. 2B and 2D).

`C[C@]12CCC(=O)C[C@@H]1CC[C@@H]1[C@@H]2CC[C@]2(C)[C@@H](O)CC[C@@H]12` [DHT, Dihydrotestosterone]: the “mRNA for HSD17B7 in the mouse preputial gland” value was “moderately induced” (kinetic study 15 minutes to 96 hours, effect visible at 24 and 96 hours, FIGS. 2A, 2B); “induced” (kinetic study 1 hour to 24 hours, effect starting at 12 hours, well visible at 18 and 24 hours, FIGS. 2C, 2D).
